From patent US4737518A, “Lipid derivatives, their production and use” (Takeda Chemical Industries, Ltd., priority 1984, dated 1988)

Legend:
[1] = test system: rabbit platelet aggregation by PAF; test: Inhibitory activity on rabbit platelet aggregation by PAF; format: cell-based; conditions: Oryctolagus cuniculus, PAF 1×10^-8 M, read-out: rate of inhibition of rabbit platelet aggregation by PAF; for inhibition at 30 µM: test drug 3 × 10^-5 M; for inhibition at 3 µM: test drug 3 × 10^-6 M; for inhibition at 0.3 µM: test drug 3 × 10^-7 M; for inhibition at 0.03 µM: test drug 3 × 10^-8 M
HL-60 cells = test: Effect on inducing differentiation of HL-60 cells (NBT-positive cells); format: cell-based, human; conditions: 6 days; for Emax: Homo sapiens, HL-60, 144 h, at optimal conc., NBT-positive relative to live cells, read-out: Maximum differentiation extent: Differentiation
Protocol: Assay of the effects on inducing differentiation of HL-60 cells (human promyelocytic leukemia cells) and Neuro-2a cells (mouse neuroblastoma cells): RPMI-1640 medium (Flow Laboratories, Inc.) supplemented with 20% fetal calf serum (M.A. […] The culture was incubated at 37° C. in a 5% CO2 incubator for 6 days. […] The reaction was allowed to proceed at 37° C. for 20 minutes. The reaction was stopped by cooling with ice, and the cells were washed by means of centrifugation, followed by collecting 3-5×10^4 cells and by subjecting to centrifugation using Cytospin centrifuge to prepare a cell smear, which was fixed with methanol and stained with Kernechtrot solution. On each cell smear, the percentage of NBT-positive cells relative to live cells, […] by examination of a minimum of 200 cells, was expressed as the differentiation extent.

PAF-induced hypotension = test: Inhibitory activity against PAF-induced hypotension in rats; format: in vivo, rat (male Spraque-Dawley); conditions: PAF 0.3 μg/kg i.v.
Protocol: Inhibitory activity against PAF-induced hypotension in rats
Male Spraque-Dawley rats, with a body weight of about 400 g, were used under pentobarbital sodium (50 mg/kg, intravenous administration) anesthesia. A cannula was inserted into the femoral artery and secured in position for measurement of blood pressure and another cannula into the femoral vein for administration of a solution of the drug. The blood pressure was measured via a pressure transducer and recorded on a polygraph. First, 0.3 μg/kg of PAF was administered intravenously and the hypotensive response was recorded.
The inhibitory activity against PAF-induced hypotension was estimated from the rate of PAF-induced hypotensive response (Δ mmHg) after the drug administration to hypotensive response (Δ mmHg) by PAF before the drug administration.

Structure (SMILES)	inhibition at 30 µM [1] [%]	inhibition at 3 µM [1] [%]	inhibition at 0.3 µM [1] [%]	further results
CCCCCCCCCCCCCCCCCCOCC(COC(=O)NCC[n+]1ccsc1)OCc1ccccc1 (stereo not shown) [Example 8, 2-O-Benzyl-1-O-octadecyl-3-O-(2'-thiazolioethyl)carbamoylglycerol bromide]	100	–	–	–
CCCCCCCCCCCCCCCCCCNC(=O)OCC(COC(=O)NCC[N+](C)(C)C)OC (stereo not shown) [Example 10, 2-O-Methyl-1-O-octadecylcarbamoyl-3-O-(2'-trimethylammonioethyl)carbamoylglycerol iodide]	82	–	–	–
CCCCCCCCCCCCCCCCCCNC(=O)OCC(COC(=O)NCC[n+]1ccsc1)OC (stereo not shown) [Example 14, 2-O-Methyl-1-O-octadecylcarbamoyl-3-O-(2'-thiazolioethyl)carbamoylglycerol bromide]	100	52	–	–
CCCCCCCCCCCCCCCCCCOCC(COC(=O)NCC[N+](C)(C)C)NC(C)=O (stereo not shown) [Example 19, 1-Octadecyloxy-2-acetamido-3-(2'-trimethylammonioethyl)carbamoyloxypropane iodide]	72	–	–	–
CCCCCCCCCCCCCCCCCCOCC(COC(=O)N(CC[N+](C)(C)C)C(C)=O)NC(C)=O (stereo not shown) [Example 20, 1-Octadecyloxy-2-acetamido-3-[N-acetyl-N-(2'-trimethylammonioethyl)]carbamoyloxypropane iodide]	100	100	–	–
CCCCCCCCCCCCCCCCCCNC(=O)OCC(COC(=O)N(CC[N+](C)(C)C)C(=O)OC)OC (stereo not shown) [Example 56, 2-O-Methyl-1-O-[N-methoxycarbonyl-N-(2'-trimethylammonioethyl)]carbamoyl-3-O-octadecylcarbamoylglycerol iodide]	100	64	–	–
CCCCCCCCCCCCCCCCCCNC(=O)OCC(COC(=O)N(CC[N+](C)(C)C)C(=O)N(C)C)OC (stereo not shown) [Example 62, 1-O-[N-Dimethylcarbamoyl-N-(2'-trimethylammonioethyl)]carbamoyl-2-O-methyl-3-O-octadecylcarbamoylglycerol iodide]	100	34	–	–
CCCCCCCCCCCCCCCCCCOCC(Cn1ccc(=O)n(CC[N+](C)(C)C)c1=O)OC(C)=O (stereo not shown) [Example 102, 1-(2-Acetyloxy-3-octadecyloxy)propyl-3-(2-trimethylammonioethyl)urasil chloride]	100	100	–	inhibition at 1 µM ([1]; test drug 1 × 10^-6 M): 72%
CCCCCCCCCCCCCCCCCCNC(=O)OCC(CNC(=O)N(Cc1cccc[n+]1C)C(C)=O)OC.[Cl-] (stereo not shown) [Example 106, 1-Methyl-2-[N-acetyl-N'-(3-octadecylcarbamoyloxy-2-methoxypropyl)ureido]methylpyridinium chloride]	–	–	–	Maximum differentiation extent: Optimal conc. (HL-60 cells): 1.88 µg/mL; Emax (HL-60 cells): 78%
CCCCCCCCCCCCCCCCCCNC(=O)OCC(CN1CC(=O)N(CC[n+]2ccsc2)C1=O)OC (stereo not shown) [Example 110, 1-[(2-methoxy-3-octadecylcarbamoyloxy)propyl]-3-(2-thiazolioethyl)hydantoinchloride]	100	100	34	–
CCCCCCCCCCCCCCCCCCNC(=O)OCC(COC(=O)N(Cc1cccc[n+]1C)C(C)=O)OCC (stereo not shown) [Example 116]	100	100	100	Restoration rate (PAF-induced hypotension; 1 mg/kg i.v., after 5 min): 100%; Restoration rate (PAF-induced hypotension; 1 mg/kg i.v., after 60 min): 77%
CCCCCCCCCCCCCCCCCCNC(=O)OCC(COC(=O)N(Cc1cccc[n+]1CC)C(C)=O)OCC (stereo not shown) [Example 117]	–	100	100	Restoration rate (PAF-induced hypotension; 1 mg/kg i.v., after 5 min): 100%; Restoration rate (PAF-induced hypotension; 1 mg/kg i.v., after 60 min): 100%
CCCCCCCCCCCCCCCCCCNC(=O)OCC(Cn1ccc(=O)n(CC[N+](C)(C)C)c1=O)OC (stereo not shown) [Example 136, N-[2-{1-(3-Octadecylcarbamoyloxy-2-methoxypropyl)uracil-3-yl}ethyl]-N,N,N-trimethylammonium chloride]	100	100	11	–
CCCCCCCCCCCCCCCCCCNC(=O)OCC(COC(=O)NCc1scc[n+]1C)OC (stereo not shown) [Example 140, 2-[N-(3-Octadecylcarbamoyloxy-2-methoxypropoxycarbonyl)amino]methyl-3-methylthiazolium iodide]	100	100	100	inhibition at 0.03 µM [1]: 18%
CCCCCCCCCCCCCCCCCCNC(=O)OCC(COC(=O)N(Cc1scc[n+]1C)C(C)=O)OC.[I-] (stereo not shown) [Example 142, 2-[N-Acetyl-N-(3-octadecylcarbamoyloxy-2-methoxypropoxycarbonyl)amino]methyl-3-methylthiazolium iodide]	100	100	100	Restoration rate (PAF-induced hypotension; 1 mg/kg i.v., after 5 min): 100%; Restoration rate (PAF-induced hypotension; 1 mg/kg i.v., after 60 min): 100%; inhibition at 0.03 µM [1]: 25%
CCCCCCCCCCCCCCCCCCNC(=O)OCC(COC(=O)N(Cc1scc[n+]1CC)C(C)=O)OC.[I-] (stereo not shown) [Example 143, 2-[N-Acetyl-N-(3-octadecylcarbamoyloxy-2-methoxypropoxycarbonyl)amino]methyl-3-ethylthiazolium iodide]	–	100	100	Restoration rate (PAF-induced hypotension; 1 mg/kg i.v., after 5 min): 100%; Restoration rate (PAF-induced hypotension; 1 mg/kg i.v., after 60 min): 100%
CCCCCCCCCCCCCCCCCCNC(=O)OCC(COC(=O)N(Cc1scc[n+]1CCC)C(C)=O)OC (stereo not shown) [Example 144, 2-[N-Acetyl-N-(3-octadecylcarbamoyloxy-2-methoxypropoxycarbonyl)amino]methyl-3-propylthiazolium iodide]	–	100	100	inhibition at 0.03 µM [1]: 9%
CCCCCCCCCCCCCCCCCCNC(=O)OCC(COC(=O)N(Cc1scc[n+]1CCCC)C(C)=O)OC (stereo not shown) [Example 145, 2-[N-Acetyl-N-(3-octadecylcarbamoyloxy-2-methoxypropoxycarbonyl)amino]methyl-3-butylthiazolium iodide]	–	100	100	–
CCCCCCCCCCCCCCCCCCNC(=O)OCC(COC(=O)N(Cc1csc[n+]1C)C(C)=O)OC (stereo not shown) [Example 148, 4-[N-Acetyl-N-(3-octadecylcarbamoyloxy-2-methoxypropoxycarbonyl)amino]methyl-3-methylthiazolium iodide]	–	100	42	–
CCCCCCCCCCCCCCCCCCNC(=O)OCC(COC(=O)N(Cc1csc[n+]1CC)C(C)=O)OC.[I-] (stereo not shown) [Example 149, 4-[N-Acetyl-N-(3-octadecylcarbamoyloxy-2-methoxypropoxycarbonyl)amino]methyl-3-ethylthiazolium iodide]	–	100	100	Restoration rate (PAF-induced hypotension; 0.1 mg/kg i.v., after 5 min): 100%; Restoration rate (PAF-induced hypotension; 0.1 mg/kg i.v., after 60 min): 39%; Restoration rate (PAF-induced hypotension; 1 mg/kg i.v., after 5 min): 100%; Restoration rate (PAF-induced hypotension; 1 mg/kg i.v., after 60 min): 100%; inhibition at 0.03 µM [1]: 78%
CCCCCCCCCCCCCCCCCCNC(=O)OCC(COC(=O)N(C(C)=O)C1CCC[N+](C)(CC)C1)OC (stereo not shown) [Example 161, 3-[N-Acetyl-N-(3-octadecylcarbamoyloxy-2-methoxypropoxycarbonyl)]amino-1-ethyl-1-methylpiperidinium chloride]	100	100	6	–
CCCCCCCCCCCCCCCCCCNC(=O)OCC(COC(=O)N(Cc1cccc[n+]1CCC)C(C)=O)OC (stereo not shown) [Example 173, 3-[N-Acetyl-N-(N'-propylpyridinio-2-yl)methyl]carbamoyl-1-octadecylcarbamoyl-2-methylglycerol chloride]	100	100	100	–
C=CC[n+]1ccccc1CN(C(C)=O)C(=O)OCC(COC(=O)NCCCCCCCCCCCCCCCCCC)OC (stereo not shown) [Example 174, 3-[N-Acetyl-N-(N'-allylpyridinio-2-yl)methyl]carbamoyl-1-octadecylcarbamoyl-2-methylglycerol chloride]	100	100	100	–
CCCCCCCCCCCCCCCCCCNC(=O)OCC(COC(=O)N(Cc1cccc[n+]1CCCC)C(C)=O)OC (stereo not shown) [Example 177, 3-[N-Acetyl-N-(N'-butylpyridinio-2-yl)methyl]carbamoyl-1-octadecylcarbamoyl-2-methylglycerol chloride]	–	–	–	Maximum differentiation extent: Optimal conc. (HL-60 cells): 0.48 µg/mL; Emax (HL-60 cells): 91%
